Data published in article PMC9699003, “Arene Variation of Highly Cytotoxic Tridentate Naphthoquinone-Based Ruthenium(II) Complexes and In-Depth In Vitro Studies” (Pharmaceutics, 2022).

Legend:
SW480 cells [1] = assay: Cell cycle distribution (PI staining, flow cytometry); format: cell-based, human; conditions: SW480, 24 h
Description: (§1) For the flow-cytometric determination of cell cycle distribution, CH1/PA-1 (8 × 10^4 cells/well) and SW480 (1.2 × 10^5 cells/well) cells were seeded into 12-well plates (CytoOne, tissue culture treated) in 1 mL supplemented MEM. In the first 24 h, the cells were allowed to settle and resume exponential growth. […] Gemcitabine (Sigma-Aldrich, 0.01 and 0.05 µM) and etoposide (Sigma-Aldrich, 0.25, 0.5 and 1 µM) were used as positive controls. After removal of the treatment medium, cells were washed with 1 mL PBS and trypsinized. Cells were collected in Eppendorf tubes and centrifuged (300 g, 3 min), and the supernatant was discarded. In the following step, cells were washed with 1 mL PBS and resuspended in 500 µL PI/HFS buffer (0.1% v/v Triton X-100, 0.1% w/v sodium citrate, in PBS) containing 25 µg/mL propidium iodide (PI, 1.0 mg/mL, Sigma-Aldrich). The staining was carried out overnight at 4 °C in the dark, and 200 µL of the cell suspension was loaded into 96-well round bottom plates (Falcon). Samples were measured with a Millipore Guava easyCyte 8HT flow cytometer with GuavaSoft™ software in the InCyte-modus, and 10,000 events/sample were detected. Data were analyzed with FlowJo software v 10.8.1 (Tree Star, Ashland, OR, USA) using Watson algorithm. Percentages of cells in the three cell cycle phases (G1/G0, S and G2/M) were calculated by integrating the resulting histograms of fluorescence signals (Figures S29 and S30). Experiments were repeated at least three times. For statistical evaluation, an unpaired t-test with Welch’s correction was performed by using GraphPad PRISM software.

CH1/PA-1 cells = assay: as above; format: cell-based, human; conditions: CH1/PA-1, 24 h
Description: as §1

[2] = system: SW480 colon carcinoma cells; assay: MTT assay (cytotoxicity); format: cell-based, human
Description: (§2) CH1/PA-1 ovarian teratocarcinoma cells (provided by L. R. Kelland, CRC Centre for Cancer Therapeutics, Institute of Cancer Research, Sutton, UK; confirmed by STR profiling as PA-1 ovarian teratocarcinoma cells at Multiplexion, Heidelberg, Germany), SW480 colon carcinoma and A549 non-small cell lung cancer cells (both obtained from the American Type Culture Collection, Manassas, VA, USA) were grown as adherent cultures in 75 cm² culture flasks (CytoOne, Starlab, Hamburg, Germany) by using minimal essential medium (MEM) supplemented with 1 mM sodium pyruvate, 4 mM L-glutamine, 1% (v/v) nonessential amino acids from 100-fold stock (all purchased from Sigma-Aldrich) and 10% heat-inactivated fetal bovine serum (BioWest, Nuaillé, France). Cells were maintained under standard culture conditions with 5% CO2 at 37 °C in a humidified atmosphere.
(§3) The 3-(4,5-dimethylthiazol-2-yl)-2,5-diphenyl-2H-tetrazolium bromide (MTT, Acros Organics, Geel, Belgium) assay was used to detect the cytotoxicity of the compounds after 24 h and 96 h incubation. In brief, cells were harvested from culture flasks and the following cell numbers (each in 100 µL) were seeded into 96-well culture plates (CytoOne, tissue culture treated, Starlab, Hamburg, Germany) for 24 h incubation: 1 × 10^4 (CH1/PA-1), 1 × 10^4 (SW480) and 1.5 × 10^4 (A549) cells per well; and for 96 h incubation: 1 × 10^3 (CH1/PA-1), 2 × 10^3 (SW480) and 3 × 10^3 (A549) cells per well. After 24 h, cells resuming their exponential growth rate were treated with test compounds at nine concentrations obtained by serial two-fold dilution. Stock solutions were prepared in DMSO (20 mM or 40 mM) and diluted in supplemented MEM. An amount of 100 µL of each concentration was added to the plates in triplicates and cells were exposed for 24 or 96 h. Afterward, the medium was replaced with 100 µL of MTT solution (5 mg/mL) in phosphate-buffered saline (PBS, Sigma-Aldrich), diluted 1:7 in RPMI 1640 medium (supplemented with 4 mM L-glutamine and 10% heat-inactivated FBS). Upon cell-viability-dependent conversion of the yellow, water-soluble tetrazolium salt into purple formazan products for 4 h, the crystals were dissolved in 150 µL DMSO. The absorbance of the resulting solutions, which is directly proportional to the number of viable cells, was measured at 550 nm (and at 690 nm as a reference) with a microplate reader (ELx808, BioTek, Winoosky, VT, USA) and Gen5TM 3.08 software (BioTek). Blank-corrected optical densities were subjected to graphical evaluation and interpolation of IC50 values. At least three biologically and technically independent experiments were performed.

[3] = system: A549 non-small cell lung cancer cells; assay: MTT assay (cytotoxicity); format: cell-based, human
Description: as §2, §3

[4] = system: CH1/PA-1 ovarian teratocarcinoma cells; assay: MTT assay (cytotoxicity); format: cell-based, human; conditions: CH1/PA-1, MTT
Description: as §2, §3

SW480 cells [5] = assay: Apoptosis assay (annexin V-FITC/PI, flow cytometry); conditions: SW480, 24 h; for early apoptotic cells / late apoptotic cells / necrotic cells / viable cells: mean ± SD; for Apoptosis / necrosis induction (in words): concentrations covering the IC50 range
Description: Cell death induction was quantitatively analyzed via flow cytometry using double staining with FITC-conjugated annexin V (eBioscience, San Diego, CA, USA) and propidium iodide (PI, 1.0 mg/mL, Sigma-Aldrich). SW480 cells were seeded into 24-well plates (7 × 10^4 cells/well) in 600 µL MEM per well and allowed to settle for 24 h. Afterward, cells were exposed to two or three different concentrations (0.1–100 µM) of the compounds (based on their cytotoxic activity) for 24 h. After treatment, the medium was collected, and cells were washed once with 37 °C warm PBS and harvested. Following trypsinization, the cell suspension was added to the pre-collected medium and cells were centrifuged (300 g, 3 min). The supernatant was removed, and the cell pellet was resuspended with 1.5 µL FITC-conjugated annexin V in 150 µL binding buffer (10 mM HEPES/NaOH pH 7.4, 140 mM NaCl and 2.5 mM CaCl2) and incubated at 37 °C for 15 min. An amount of 1 µL of propidium iodide (PI, Thermo Fisher) was added shortly before flow-cytometric analysis using a Guava easyCyte 8HT instrument (Merck Millipore, Burlington, MA, USA) with InCyte software. Results were quantified by using the FlowJo software (TreeStar). At least three independent experiments were conducted.

SMILES | Cells in G1/G0 phase (SW480 cells [1]; 0.16 µM) [%] | Cells in G2/M phase (SW480 cells [1]; 0.16 µM) [%] | Cells in S phase (SW480 cells [1]; 0.16 µM) [%] | Cells in G1/G0 phase (CH1/PA-1 cells; 25 µM) [%] | Cells in G2/M phase (CH1/PA-1 cells; 25 µM) [%] | Cells in S phase (CH1/PA-1 cells; 25 µM) [%] | Cells in G1/G0 phase (CH1/PA-1 cells; 50 µM) [%] | Cells in G2/M phase (CH1/PA-1 cells; 50 µM) [%] | Cells in S phase (CH1/PA-1 cells; 50 µM) [%] | IC50 ([2]; 24 h exposure) [µM] | IC50 ([2]; 96 h exposure) [µM] | IC50 ([3]; 24 h exposure) [µM] | IC50 ([3]; 96 h exposure) [µM] | IC50 ([4]; 24 h exposure) [µM] | IC50 ([4]; 96 h exposure) [µM] | early apoptotic cells (SW480 cells [5]; 0.1 µM) [%] | late apoptotic cells (SW480 cells [5]; 0.1 µM) [%] | necrotic cells (SW480 cells [5]; 0.1 µM) [%] | viable cells (SW480 cells [5]; 0.1 µM) [%] | early apoptotic cells (SW480 cells [5]; 1 µM) [%] | further results
CC1=C([O-])C([O-])(n2cccn2)c2ccccc2C1=O.[Ru+2].c1ccc(-c2ccccc2)cc1 (racemic) [Compound 5] | 15.5 ± 1.3 | 27.4 ± 1.3 | 57.1 ± 0.1 | 19.2 ± 4.8 | 46.7 ± 1.9 | 38.0 ± 4.0 | 17.5 ± 1.8 | 46.8 ± 1.8 | 39.3 ± 1.4 | 0.77 ± 0.24 | 0.072 ± 0.019 | 4.3 ± 1.6 | 1.2 ± 0.2 | 42 ± 4 | 30 ± 3 | 3.0 ± 2.2 | 2.9 ± 1.5 | 1.0 ± 0.5 | 93 ± 4 | 1.0 ± 0.5 | Cells in G1/G0 phase (SW480 cells [1]; 0.039 µM): 32.3 ± 12.9%; Cells in G2/M phase (SW480 cells [1]; 0.039 µM): 30.5 ± 6.2%; Cells in S phase (SW480 cells [1]; 0.039 µM): 38.8 ± 7.2%; Cells in G1/G0 phase (SW480 cells [1]; 0.078 µM): 19.5 ± 4.3%; Cells in G2/M phase (SW480 cells [1]; 0.078 µM): 35.9 ± 3.5%; Cells in S phase (SW480 cells [1]; 0.078 µM): 46.9 ± 7.7%; Cells in G1/G0 phase (CH1/PA-1 cells; 12.5 µM): 20.1 ± 5.0%; Cells in G2/M phase (CH1/PA-1 cells; 12.5 µM): 39.1 ± 5.4%; Cells in S phase (CH1/PA-1 cells; 12.5 µM): 43.1 ± 6.3%; late apoptotic cells (SW480 cells [5]; 1 µM): 3.3 ± 1.3%; necrotic cells (SW480 cells [5]; 1 µM): 0.85 ± 0.48%; viable cells (SW480 cells [5]; 1 µM): 95 ± 2%; early apoptotic cells (SW480 cells [5]; 10 µM): 25 ± 7%; late apoptotic cells (SW480 cells [5]; 10 µM): 40 ± 6%; necrotic cells (SW480 cells [5]; 10 µM): 6.3 ± 2.2%; viable cells (SW480 cells [5]; 10 µM): 29 ± 11%; Apoptosis / necrosis induction (in words) (SW480 cells [5]): induced apoptosis to a high extent
CC1=C([O-])C([O-])(n2cccn2)c2ccccc2C1=O.Cc1c(C)c(C)c(C)c(C)c1C.[Ru+2] (centres unmarked) [Compound 6] | 23.2 ± 4.1 | 35.7 ± 0.7 | 43.7 ± 4.8 | 25.1 ± 2.5 | 44.2 ± 7.1 | 35.0 ± 0.9 | 22.8 ± 4.7 | 40.8 ± 2.5 | 38.6 ± 4.2 | 2.8 ± 1.6 | 0.27 ± 0.06 | 38 ± 21 | 3.4 ± 0.6 | 57 ± 16 | 35 ± 4 | 1.0 ± 0.7 | 4.7 ± 2.8 | 17 ± 27 | 77 ± 29 | 1.1 ± 07 | Cells in G1/G0 phase (SW480 cells [1]; 0.31 µM): 15.0 ± 3.8%; Cells in G2/M phase (SW480 cells [1]; 0.31 µM): 32.6 ± 4.7%; Cells in S phase (SW480 cells [1]; 0.31 µM): 53.7 ± 4.9%; Cells in G1/G0 phase (SW480 cells [1]; 0.63 µM): 24.2 ± 2.0%; Cells in G2/M phase (SW480 cells [1]; 0.63 µM): 25.6 ± 4.5%; Cells in S phase (SW480 cells [1]; 0.63 µM): 53.5 ± 2.6%; Cells in G1/G0 phase (CH1/PA-1 cells; 75 µM): 25.6 ± 3.5%; Cells in G2/M phase (CH1/PA-1 cells; 75 µM): 38.4 ± 3.7%; Cells in S phase (CH1/PA-1 cells; 75 µM): 39.4 ± 2.5%; late apoptotic cells (SW480 cells [5]; 1 µM): 2.0 ± 0.7%; necrotic cells (SW480 cells [5]; 1 µM): 1.0 ± 1.3%; viable cells (SW480 cells [5]; 1 µM): 96 ± 2%; early apoptotic cells (SW480 cells [5]; 10 µM): 1.1 ± 0.3%; late apoptotic cells (SW480 cells [5]; 10 µM): 3.7 ± 0.1%; necrotic cells (SW480 cells [5]; 10 µM): 0.94 ± 0.52%; viable cells (SW480 cells [5]; 10 µM): 94 ± 0%; Apoptosis / necrosis induction (in words) (SW480 cells [5]): neither apoptotic nor necrotic cells exceeded the percentages in untreated controls
